Experimental data taken from ChEMBL document CHEMBL5360657, “Discovery of the TLR7/8 Antagonist MHV370 for Treatment of Systemic Autoimmune Diseases” (ACS Med Chem Lett, 2023).

Assays:
[1] = Metabolic stability in mouse liver microsomes assessed as intrinsic clearance; type: ADME, Microsome; conditions: read-out: CLH
[2] = Metabolic stability in human liver microsomes assessed as intrinsic clearance; type: ADME, Microsome; conditions: read-out: CLH
Toll-like receptor 9 = biological target: T1, Toll-like receptor 9 (Homo sapiens, UniProt Q9NR96); assay: Antagonist activity at TLR9 in human PBMC cells assessed as reduction in IFN alpha measured after 20 hrs by AlphaLISA assay; type: cell-based
T1 sequence (Q9NR96 whole entry): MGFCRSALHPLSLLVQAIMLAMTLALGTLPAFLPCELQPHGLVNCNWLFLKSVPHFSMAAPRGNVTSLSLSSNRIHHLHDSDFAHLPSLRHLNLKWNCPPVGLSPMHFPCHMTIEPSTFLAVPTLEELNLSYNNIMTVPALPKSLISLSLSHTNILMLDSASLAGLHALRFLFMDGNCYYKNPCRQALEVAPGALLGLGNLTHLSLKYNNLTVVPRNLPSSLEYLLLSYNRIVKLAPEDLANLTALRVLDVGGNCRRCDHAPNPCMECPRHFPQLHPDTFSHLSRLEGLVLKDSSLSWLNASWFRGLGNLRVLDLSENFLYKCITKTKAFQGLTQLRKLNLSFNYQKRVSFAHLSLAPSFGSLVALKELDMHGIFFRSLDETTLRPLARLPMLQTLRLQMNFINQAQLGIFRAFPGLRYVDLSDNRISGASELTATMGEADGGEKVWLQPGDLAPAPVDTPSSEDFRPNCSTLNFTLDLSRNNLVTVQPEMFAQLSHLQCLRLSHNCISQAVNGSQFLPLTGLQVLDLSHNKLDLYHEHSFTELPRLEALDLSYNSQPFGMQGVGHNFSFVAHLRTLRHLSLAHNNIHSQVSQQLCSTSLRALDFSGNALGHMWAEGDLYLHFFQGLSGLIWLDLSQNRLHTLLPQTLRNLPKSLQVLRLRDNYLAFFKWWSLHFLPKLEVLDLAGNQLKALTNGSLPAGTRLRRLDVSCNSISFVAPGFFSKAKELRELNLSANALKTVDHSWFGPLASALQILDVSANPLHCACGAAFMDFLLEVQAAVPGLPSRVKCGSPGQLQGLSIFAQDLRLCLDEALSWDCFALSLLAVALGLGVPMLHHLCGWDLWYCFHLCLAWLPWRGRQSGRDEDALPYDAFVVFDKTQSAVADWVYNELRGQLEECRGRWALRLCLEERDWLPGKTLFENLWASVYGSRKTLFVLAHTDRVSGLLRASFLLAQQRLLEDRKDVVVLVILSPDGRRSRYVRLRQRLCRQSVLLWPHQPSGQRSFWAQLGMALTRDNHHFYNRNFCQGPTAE

[3] = Permeability of the compound by PAMPA; type: ADME
[4] = biological target: Voltage-gated inwardly rectifying potassium channel KCNH2 (Homo sapiens, UniProt Q12809); assay: Displacement of [3H]-dofetilite from human ERG (unknown origin); type: toxicity
Toll-like receptor 7 = biological target: T2, Toll-like receptor 7 (Homo sapiens, UniProt Q9NYK1); assay: Antagonist activity at TLR7 in human PBMC cells assessed as reduction in IFN alpha measured after 20 hrs by AlphaLISA assay; type: cell-based
T2 sequence (Q9NYK1 whole entry): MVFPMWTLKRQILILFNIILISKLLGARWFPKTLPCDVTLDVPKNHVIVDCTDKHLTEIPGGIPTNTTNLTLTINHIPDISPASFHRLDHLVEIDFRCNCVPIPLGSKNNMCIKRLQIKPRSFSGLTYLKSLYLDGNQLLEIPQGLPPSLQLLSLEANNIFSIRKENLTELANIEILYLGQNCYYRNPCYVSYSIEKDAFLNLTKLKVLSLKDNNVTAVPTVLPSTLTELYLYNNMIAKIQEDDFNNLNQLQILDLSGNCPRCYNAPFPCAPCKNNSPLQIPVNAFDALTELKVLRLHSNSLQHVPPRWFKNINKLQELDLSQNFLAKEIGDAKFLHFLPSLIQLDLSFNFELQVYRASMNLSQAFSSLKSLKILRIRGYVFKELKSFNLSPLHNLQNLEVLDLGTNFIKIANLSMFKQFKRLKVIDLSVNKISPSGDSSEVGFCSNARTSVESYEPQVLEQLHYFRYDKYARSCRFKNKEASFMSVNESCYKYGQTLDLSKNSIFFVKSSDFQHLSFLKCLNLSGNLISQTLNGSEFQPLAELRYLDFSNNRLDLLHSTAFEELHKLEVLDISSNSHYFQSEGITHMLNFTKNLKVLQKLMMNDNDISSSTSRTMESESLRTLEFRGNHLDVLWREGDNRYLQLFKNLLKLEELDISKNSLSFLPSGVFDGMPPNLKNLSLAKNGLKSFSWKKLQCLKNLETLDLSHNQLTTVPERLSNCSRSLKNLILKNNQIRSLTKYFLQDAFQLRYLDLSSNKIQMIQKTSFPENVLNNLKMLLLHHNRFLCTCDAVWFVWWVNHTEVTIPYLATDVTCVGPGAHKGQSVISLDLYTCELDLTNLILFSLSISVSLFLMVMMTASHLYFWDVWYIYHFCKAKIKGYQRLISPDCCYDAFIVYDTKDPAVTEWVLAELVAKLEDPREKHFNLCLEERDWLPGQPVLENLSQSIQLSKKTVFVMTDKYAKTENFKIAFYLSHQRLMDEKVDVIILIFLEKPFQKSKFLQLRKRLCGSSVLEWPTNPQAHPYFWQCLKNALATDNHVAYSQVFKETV

Cytochrome P450 3A4 [5] = biological target: T3, Cytochrome P450 3A4 (Homo sapiens, UniProt P08684); assay: Inhibition of CYP3A4 (unknown origin); type: ADME
[6] = Metabolic stability in rat liver microsomes assessed as intrinsic clearance; type: ADME, Microsome; conditions: read-out: CLH
Toll-like receptor 8 = biological target: T4, Toll-like receptor 8 (Homo sapiens, UniProt Q9NR97); assay: Antagonist activity at TLR8 in human PBMC cells […] assessed as reduction in IL-6 level measured after 20 hrs by AlphaLISA assay; type: cell-based
T4 sequence (Q9NR97 whole entry): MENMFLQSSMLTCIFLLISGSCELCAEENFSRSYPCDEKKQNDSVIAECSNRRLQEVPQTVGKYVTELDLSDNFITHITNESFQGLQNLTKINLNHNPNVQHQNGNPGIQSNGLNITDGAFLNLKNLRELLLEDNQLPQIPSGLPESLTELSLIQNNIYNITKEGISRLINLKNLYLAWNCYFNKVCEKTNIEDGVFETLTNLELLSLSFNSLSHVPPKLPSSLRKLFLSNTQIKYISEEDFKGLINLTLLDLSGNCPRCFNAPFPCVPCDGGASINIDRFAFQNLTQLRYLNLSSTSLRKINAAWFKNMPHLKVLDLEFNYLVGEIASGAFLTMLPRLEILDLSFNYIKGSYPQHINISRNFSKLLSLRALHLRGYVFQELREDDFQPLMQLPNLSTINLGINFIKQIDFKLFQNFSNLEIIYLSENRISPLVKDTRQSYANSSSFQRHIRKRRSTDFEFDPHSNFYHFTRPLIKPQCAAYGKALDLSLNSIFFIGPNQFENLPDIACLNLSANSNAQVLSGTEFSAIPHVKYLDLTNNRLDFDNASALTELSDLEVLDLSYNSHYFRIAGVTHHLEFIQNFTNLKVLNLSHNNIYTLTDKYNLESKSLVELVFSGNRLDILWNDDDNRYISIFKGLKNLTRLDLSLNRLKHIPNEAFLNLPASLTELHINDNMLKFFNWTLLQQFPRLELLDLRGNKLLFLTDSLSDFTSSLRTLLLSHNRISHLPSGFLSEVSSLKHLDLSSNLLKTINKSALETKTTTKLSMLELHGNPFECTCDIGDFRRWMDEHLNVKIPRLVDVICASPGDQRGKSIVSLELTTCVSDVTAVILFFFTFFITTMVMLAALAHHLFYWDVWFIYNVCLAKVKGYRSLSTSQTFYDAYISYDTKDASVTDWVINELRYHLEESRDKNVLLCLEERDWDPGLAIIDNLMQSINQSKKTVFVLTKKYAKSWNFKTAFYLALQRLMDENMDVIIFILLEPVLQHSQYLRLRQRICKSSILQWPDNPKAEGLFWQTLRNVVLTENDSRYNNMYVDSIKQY

Cytochrome P450 3A4 [7] = biological target: T3, Cytochrome P450 3A4; assay: Time dependent inhibition of CYP3A4 (unknown origin) assessed as Kobs; type: ADME; further: test concentration or dose not given here
[8] = Solubility of the compound; type: physicochemical

Sequence of Voltage-gated inwardly rectifying potassium channel KCNH2 (Q12809 whole entry): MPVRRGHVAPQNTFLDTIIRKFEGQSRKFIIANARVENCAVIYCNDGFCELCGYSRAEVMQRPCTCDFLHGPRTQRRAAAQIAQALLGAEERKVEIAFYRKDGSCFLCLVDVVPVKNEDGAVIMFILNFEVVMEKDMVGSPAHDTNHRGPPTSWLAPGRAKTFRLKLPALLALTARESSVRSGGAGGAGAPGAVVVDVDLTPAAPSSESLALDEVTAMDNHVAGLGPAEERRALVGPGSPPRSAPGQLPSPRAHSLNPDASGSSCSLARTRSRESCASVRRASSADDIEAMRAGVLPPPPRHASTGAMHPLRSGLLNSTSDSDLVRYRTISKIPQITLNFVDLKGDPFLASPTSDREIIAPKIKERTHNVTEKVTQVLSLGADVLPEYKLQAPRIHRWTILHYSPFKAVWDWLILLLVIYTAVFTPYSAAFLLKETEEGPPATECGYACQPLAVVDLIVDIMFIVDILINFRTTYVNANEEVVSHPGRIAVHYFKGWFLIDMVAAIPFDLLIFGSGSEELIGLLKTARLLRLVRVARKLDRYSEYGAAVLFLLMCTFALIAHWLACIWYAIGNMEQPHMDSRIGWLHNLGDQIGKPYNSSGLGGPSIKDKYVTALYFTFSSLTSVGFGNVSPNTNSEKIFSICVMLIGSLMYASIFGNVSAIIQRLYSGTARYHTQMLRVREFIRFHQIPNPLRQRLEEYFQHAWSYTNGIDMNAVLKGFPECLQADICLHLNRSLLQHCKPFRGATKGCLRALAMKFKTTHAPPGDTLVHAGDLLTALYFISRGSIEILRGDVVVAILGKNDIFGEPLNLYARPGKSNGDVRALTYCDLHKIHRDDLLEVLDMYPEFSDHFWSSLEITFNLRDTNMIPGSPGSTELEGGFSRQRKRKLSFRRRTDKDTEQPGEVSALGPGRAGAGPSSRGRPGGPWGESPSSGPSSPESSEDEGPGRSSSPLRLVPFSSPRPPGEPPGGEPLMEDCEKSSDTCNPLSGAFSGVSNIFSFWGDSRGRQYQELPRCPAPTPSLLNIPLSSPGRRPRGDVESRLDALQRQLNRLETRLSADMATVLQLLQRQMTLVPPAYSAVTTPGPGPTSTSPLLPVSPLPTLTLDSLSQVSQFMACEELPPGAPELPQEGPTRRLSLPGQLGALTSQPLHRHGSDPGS
T3 sequence (P08684 whole entry): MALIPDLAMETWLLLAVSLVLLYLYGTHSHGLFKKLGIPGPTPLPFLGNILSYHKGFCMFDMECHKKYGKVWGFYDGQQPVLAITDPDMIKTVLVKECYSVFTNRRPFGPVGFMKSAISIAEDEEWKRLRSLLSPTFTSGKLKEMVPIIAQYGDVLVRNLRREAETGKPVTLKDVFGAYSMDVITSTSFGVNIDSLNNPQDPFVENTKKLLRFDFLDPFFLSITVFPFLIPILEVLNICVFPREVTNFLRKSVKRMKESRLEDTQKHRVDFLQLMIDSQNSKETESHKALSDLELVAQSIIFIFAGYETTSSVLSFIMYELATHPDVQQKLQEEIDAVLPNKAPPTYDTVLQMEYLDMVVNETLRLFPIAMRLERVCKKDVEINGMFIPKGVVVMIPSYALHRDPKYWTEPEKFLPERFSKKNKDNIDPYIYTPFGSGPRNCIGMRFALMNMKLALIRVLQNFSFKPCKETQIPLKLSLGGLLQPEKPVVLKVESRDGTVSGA

SMILES | microsomal CLint [1] | microsomal CLint [2] | IC50 (Toll-like receptor 9) | log(permeability) [3] | IC50 [4] | IC50 (Toll-like receptor 7) | IC50 (Cytochrome P450 3A4 [5]) | microsomal CLint [6] | IC50 (Toll-like receptor 8) | Kobs (Cytochrome P450 3A4 [7]) | solubility [8]
Cc1cc(N2CCc3c(c(C)nn3CC34CCC(NC(=O)[C@H]5COCCN5)(CC3)CC4)C2)c2cnn(C)c2n1 | 382 µL/min/mg | 54 µL/min/mg | 1.9 µM | -5.3 | > 30 µM | 0.013 µM | > 50 µM | < 15 µL/min/mg | 0.22 µM | 0.018 min⁻¹ | –
CCN(C)CC(=O)NC12CCC(Cn3nc(C)c4c3CCN(c3cc(C)nc5c3cnn5C)C4)(CC1)CC2 | > 700 µL/min/mg | 463 µL/min/mg | – | -4.1 | > 30 µM | < 0.005 µM | 28 µM | 48 µL/min/mg | 0.007 µM | 0.013 min⁻¹ | –
Cc1cc(N2CCc3c(c(C)nn3CC34CCC(NC(=O)CN5CCC5)(CC3)CC4)C2)c2cnn(C)c2n1 | – | 90 µL/min/mg | 0.28 µM | -4.6 | > 30 µM | 0.001 µM | 17 µM | 37 µL/min/mg | 0.06 µM | 0.044 min⁻¹ | –
CC(=O)NC12CCC(Cn3nc(C)c4c3CCN(c3cc(C)nc5c3cnn5C)C4)(CC1)CC2 | – | 63 µL/min/mg | 5.2 µM | -4.6 | > 30 µM | – | 24 µM | 45 µL/min/mg | > 10 µM | 0.022 min⁻¹ | > 175 µM
CN[C@H](C)C(=O)NC12CCC(Cn3nc(C)c4c3CCN(c3cc(C)nc5c3cnn5C)C4)(CC1)CC2 | 120 µL/min/mg | < 15 µL/min/mg | 0.78 µM | -5.3 | > 30 µM | – | > 50 µM | < 15 µL/min/mg | 0.19 µM | 0.023 min⁻¹ | –
Cc1cc(N2CCc3c(c(C)nn3CC34CCC(N5CCN(C)C(=O)C5)(CC3)CC4)C2)c2cnn(C)c2n1 | 103 µL/min/mg | 39 µL/min/mg | > 7.3 µM | -5 | > 30 µM | 0.056 µM | > 50 µM | 87 µL/min/mg | 0.4 µM | 0.015 min⁻¹ | –
Cc1cc(N2CCc3c(c(C)nn3CC34CCC(NCC(F)F)(CC3)CC4)C2)c2cnn(C)c2n1 | – | 423 µL/min/mg | – | -3.7 | > 30 µM | – | 8.6 µM | 656 µL/min/mg | 0.14 µM | 0.011 min⁻¹ | > 175 µM
